Reference: ChEMBL document CHEMBL1151568, “New TXA2/PGH2 receptor antagonists based on the carbacyclin skeleton” (Bioorg Med Chem Lett, 1993)
pIC50: −log10 of the molar value.

How the values were obtained:
[1] = molecular target: T1, Thromboxane A2 receptor (Homo sapiens) (UniProt P21731); assay: Antiaggregatory potency relative to TP-receptor antagonist SQ 29548; type: functional
T1 sequence (whole entry): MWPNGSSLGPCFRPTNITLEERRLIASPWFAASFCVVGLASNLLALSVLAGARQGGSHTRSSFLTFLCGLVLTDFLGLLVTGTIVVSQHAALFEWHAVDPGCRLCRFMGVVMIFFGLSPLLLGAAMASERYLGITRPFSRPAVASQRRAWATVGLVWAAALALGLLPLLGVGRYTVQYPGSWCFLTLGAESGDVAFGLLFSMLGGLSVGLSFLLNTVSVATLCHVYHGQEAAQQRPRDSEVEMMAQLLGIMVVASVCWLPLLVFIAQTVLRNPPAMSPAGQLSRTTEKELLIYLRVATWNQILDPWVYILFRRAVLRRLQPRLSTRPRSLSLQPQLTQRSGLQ

[2] = molecular target: T1, Thromboxane A2 receptor (Homo sapiens); assay: TP receptor affinity, expressed as competition factor (CF) which is the ratio of IC50 of test to IC50 of standard
Homo sapiens [3] = species: Homo sapiens; assay: Compound was tested for its ability to inhibit blood platelet aggregation induced by ADP; type: functional
Homo sapiens [4] = species: Homo sapiens; assay: Compound was tested for its ability to inhibit blood platelet aggregation induced by TP-receptor agonist U 46619; type: functional
Prostacyclin receptor [5] = molecular target: T2, Prostacyclin receptor (Homo sapiens, UniProt P43119); assay: (§1) Compound was tested for Prostanoid IP receptor affinity and expressed as competition factor (CF) which is the ratio of IC50 of test to IC50 of standard
Prostacyclin receptor [6] = molecular target: T2, Prostacyclin receptor; assay: as §1; remark: listed apart in the source

T2 sequence (P43119 whole entry): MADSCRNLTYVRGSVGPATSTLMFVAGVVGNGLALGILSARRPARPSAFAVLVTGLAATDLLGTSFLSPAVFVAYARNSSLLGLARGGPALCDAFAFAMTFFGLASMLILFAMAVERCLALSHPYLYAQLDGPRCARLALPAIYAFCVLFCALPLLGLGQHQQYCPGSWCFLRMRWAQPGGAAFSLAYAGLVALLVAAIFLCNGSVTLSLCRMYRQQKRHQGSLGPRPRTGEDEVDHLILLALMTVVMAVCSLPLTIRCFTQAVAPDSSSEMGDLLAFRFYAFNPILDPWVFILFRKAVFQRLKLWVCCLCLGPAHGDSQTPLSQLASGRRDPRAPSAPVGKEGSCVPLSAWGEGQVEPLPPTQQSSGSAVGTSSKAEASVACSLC

Relative potency [1] | CF [2] | pIC50 (Homo sapiens [3]) | pIC50 (Homo sapiens [4]) | CF (Prostacyclin receptor [5]) | IC50 (Prostacyclin receptor [6]) | SMILES
0.01 | 0.7 |  |  |  |  | O=C(O)CCC/C=C1/C[C@H]2CC[C@H](/C=N/NC(=O)Nc3ccc([N+](=O)[O-])cc3)[C@H]2C1
0.005 | 20 |  |  |  |  | O=C(O)CCC/C=C1\C[C@H]2C[C@@H](O)[C@H](/C=N/NC(=O)Nc3ccccc3)[C@H]2C1
0.1 | 0.7 |  |  |  |  | O=C(O)CCC/C=C1\C[C@H]2C[C@@H](O)[C@H](/C=N/NC(=O)Nc3ccc([N+](=O)[O-])cc3)[C@H]2C1
0.059 | 10 |  |  |  |  | O=C(O)CC/C=C1/C[C@H]2C[C@@H](O)[C@H](/C=N/NC(=O)Nc3ccccc3)[C@H]2C1
0.0007 | 454 |  |  |  |  | O=C(O)CC/C=C1\C[C@H]2C[C@@H](O)[C@H](/C=N/NC(=O)Nc3ccccc3)[C@H]2C1
0.33 | 9.4 |  |  |  |  | O=C(O)COC/C=C1\C[C@H]2C[C@@H](O)[C@H](/C=N/NC(=O)Nc3ccc([N+](=O)[O-])cc3)[C@H]2C1
0.01 | 2.2 |  |  |  |  | O=C(O)CCC/C=C1\C[C@H]2CC[C@H](/C=N/NC(=O)Nc3ccc([N+](=O)[O-])cc3)[C@H]2C1
0.027 | 22 |  |  |  |  | O=C(O)CC/C=C1\C[C@H]2C[C@@H](O)[C@H](/C=N/NC(=O)Nc3ccc([N+](=O)[O-])cc3)[C@H]2C1
0.17 | 1.5 |  |  |  |  | O=C(O)CCC/C=C1/C[C@H]2C[C@@H](O)[C@H](/C=N/NC(=O)Nc3ccccc3)[C@H]2C1
0.33 | 0.8 |  |  |  |  | O=C(O)CC/C=C1/C[C@H]2C[C@@H](O)[C@H](/C=N/NC(=O)Nc3ccc(Cl)c(Cl)c3)[C@H]2C1
0.09 | 1.6 |  |  |  |  | O=C(O)CCC/C=C1\C[C@H]2C[C@@H](O)[C@H](/C=N/NC(=O)Nc3cccc(Cl)c3)[C@H]2C1
8.3 | 0.5 |  |  |  |  | O=C(O)CC/C=C1/C[C@H]2C[C@@H](O)[C@H](/C=N/NC(=O)Nc3ccc([N+](=O)[O-])cc3)[C@H]2C1
0.33 | 0.7 |  |  |  |  | O=C(O)COC/C=C1/C[C@H]2C[C@@H](O)[C@H](/C=N/NC(=O)Nc3ccc(Cl)c(Cl)c3)[C@H]2C1
0.008 | 16 |  |  |  |  | O=C(O)CC/C=C1\C[C@H]2C[C@@H](O)[C@H](/C=N/NC(=O)Nc3ccc(Cl)c(Cl)c3)[C@H]2C1
0.11 | 4 |  |  |  |  | O=C(O)COC/C=C1/C[C@H]2C[C@@H](O)[C@H](/C=N/NC(=O)Nc3cccc(Cl)c3)[C@H]2C1
1 | 0.9 |  |  |  |  | O=C(O)COC/C=C1/C[C@H]2C[C@@H](O)[C@H](/C=N/NC(=O)Nc3ccc([N+](=O)[O-])cc3)[C@H]2C1
0.03 | 18 |  |  |  |  | O=C(O)COC/C=C1\C[C@H]2C[C@@H](O)[C@H](/C=N/NC(=O)Nc3cccc(Cl)c3)[C@H]2C1
0.11 | 2.4 |  |  |  |  | O=C(O)CC/C=C1/C[C@H]2C[C@@H](O)[C@H](/C=N/NC(=O)Nc3cccc(Cl)c3)[C@H]2C1
0.004 | 50 |  |  |  |  | O=C(O)CC/C=C1\C[C@H]2C[C@@H](O)[C@H](/C=N/NC(=O)Nc3cccc(Cl)c3)[C@H]2C1
0.11 | 2.9 |  |  |  |  | O=C(O)COC/C=C1\C[C@H]2C[C@@H](O)[C@H](/C=N/NC(=O)Nc3ccc(Cl)c(Cl)c3)[C@H]2C1
0.008 | 138 |  |  |  |  | O=C(O)COC/C=C1\C[C@H]2C[C@@H](O)[C@H](/C=N/NC(=O)Nc3ccccc3)[C@H]2C1
0.014 | 16 |  |  |  |  | O=C(O)COC/C=C1/C[C@H]2C[C@@H](O)[C@H](/C=N/NC(=O)Nc3ccccc3)[C@H]2C1
0.33 | 0.1 |  |  |  |  | O=C(O)CCC/C=C1/C[C@H]2C[C@@H](O)[C@H](/C=N/NC(=O)Nc3ccc([N+](=O)[O-])cc3)[C@H]2C1

The next lines start with the compound.

SMILES | Relative potency [1] | CF [2] | pIC50 (Homo sapiens [3]) | pIC50 (Homo sapiens [4]) | CF (Prostacyclin receptor [5]) | IC50 (Prostacyclin receptor [6])
O=C(O)CCC/C=C1\C[C@H]2C[C@@H](O)[C@H](/C=N\OC(c3ccccc3)c3ccccc3)[C@H]2C1 | 0.03 | 95 | 6.00 | 5.80 | 160 | 
O=C(O)CCC/C=C1/C[C@H]2C[C@@H](O)[C@H](/C=N/NC(=O)Nc3cccc(Cl)c3)[C@H]2C1 | 0.25 | 0.2 |  |  |  | 
O=C(O)CCC/C=C1/C[C@H]2C[C@@H](O)[C@H](/C=N/OCc3ccc(F)cc3)[C@H]2C1 | 0.001 | 500 |  | 4.85 | 250 | 
O=C(O)CCC/C=C1\C[C@H]2CC[C@H](/C=N/NC(=O)Nc3ccc(Cl)c(Cl)c3)[C@H]2C1 | 0.002 | 4.3 |  |  |  | 
O=C(O)CCC/C=C1\C[C@H]2C[C@@H](O)[C@H](/C=N/NC(=O)Nc3ccc(Cl)c(Cl)c3)[C@H]2C1 | 0.038 | 0.8 |  |  |  | 
O=C(O)CCC/C=C1\C[C@H]2C[C@@H](O)[C@H](/C=N/OCc3ccc4ccccc4c3)[C@H]2C1 | 0.03 | 280 | 5.96 | 5.80 | 31 | 
O=C(O)CCC/C=C1\C[C@H]2CC[C@H](/C=N/NC(=O)Nc3ccccc3)[C@H]2C1 | 0.0004 | 40 |  |  |  | 
O=C(O)CCC/C=C1\C[C@H]2C[C@@H](O)[C@H](/C=N/OCc3ccc(F)cc3)[C@H]2C1 | 0.009 | > 1000 | 5.82 | 5.72 | 20 | 
O=C(O)CCC/C=C1/C[C@H]2CC[C@H](/C=N/NC(=O)Nc3ccccc3)[C@H]2C1 | 0.002 | 3 |  |  |  | 
O=C(O)CCC/C=C1/C[C@H]2C[C@@H](O)[C@H](/C=N/NC(=O)Nc3ccc(Cl)c(Cl)c3)[C@H]2C1 | 1 | 0.1 |  |  |  | 
O=C(O)CCC/C=C1\C[C@H]2CC[C@H](/C=N/NC(=O)Nc3cccc(Cl)c3)[C@H]2C1 | 0.0007 | 16 |  |  |  | 
O=C(O)CCC/C=C1/C[C@H]2C[C@@H](O)[C@H](/C=N/OCc3ccc4ccccc4c3)[C@H]2C1 | 0.002 | 90 |  | 5.66 | 76 | 
O=C(O)CCC/C=C1\C[C@H]2C[C@@H](O)[C@H](/C=N/OCc3ccccc3)[C@H]2C1 | 0.009 | > 1000 | 5.70 | 5.72 | 7 | 
O=C(O)CCC/C=C1/C[C@H]2C[C@@H](O)[C@H](/C=N/OCc3ccccc3)[C@H]2C1 | 0.001 | 470 | < 4.30 | 5.27 | 100 | 
O=C(O)CCC/C=C1/C[C@H]2CC[C@H](/C=N/NC(=O)Nc3ccc(Cl)c(Cl)c3)[C@H]2C1 | 0.003 | 1.6 |  |  |  | 
O=C(O)CCC/C=C1/C[C@H]2C[C@@H](O)[C@H](/C=N\OC(c3ccccc3)c3ccccc3)[C@H]2C1 | 0.001 | 210 |  | 4.64 |  | NC
